Patent US6762052B1, “DNA sequence encoding flavin-containing monooxygenase” (priority 1993, dated 2004)

Target: T1, lys158-HFMO3-MBP (Homo sapiens, UniProt P31513, E158K)
T1 sequence (P31513 2-532 E158K): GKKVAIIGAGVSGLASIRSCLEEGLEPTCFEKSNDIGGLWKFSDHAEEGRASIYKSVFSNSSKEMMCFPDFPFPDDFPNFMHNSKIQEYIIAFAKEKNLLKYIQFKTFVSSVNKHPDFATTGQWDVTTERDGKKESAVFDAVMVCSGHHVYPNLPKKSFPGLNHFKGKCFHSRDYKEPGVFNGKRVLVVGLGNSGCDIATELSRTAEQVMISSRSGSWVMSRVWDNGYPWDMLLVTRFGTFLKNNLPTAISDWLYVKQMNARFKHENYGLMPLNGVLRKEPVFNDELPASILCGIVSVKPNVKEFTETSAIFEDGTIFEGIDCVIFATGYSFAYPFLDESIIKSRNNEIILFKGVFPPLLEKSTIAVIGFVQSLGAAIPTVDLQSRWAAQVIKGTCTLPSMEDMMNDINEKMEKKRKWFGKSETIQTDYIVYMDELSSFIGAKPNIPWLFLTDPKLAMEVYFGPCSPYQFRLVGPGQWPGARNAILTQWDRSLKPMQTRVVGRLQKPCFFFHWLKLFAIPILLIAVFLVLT
Experiment: Substrate oxygenation by lys158-HFMO3-MBP fusion protein, HPLC
Conditions: lys158-HFMO3-MBP, N-oxygenation
Method: For HFMO3-MBP assay, all HFMO3-MBP incubations were done as follows: Into a test tube was added DETAPAC (1.2 mM, final concentration for a 250 μl reaction) followed by the addition of 60 μl NADPH generating system (0.4 mM NADP, 0.4 mM glucose-6-phosphate, and 20 μl of a 50 units mI^−1 glucose-6-phosphate dehydrogenase). The tube was chilled on ice and buffer and enzyme were added as described below for individual experiments to give a volume of 240 μl. The incubation was initiated by the addition of 5-DTP (10 μl of 5 mM) and placed in a shaking water bath at 37° C. for 10 min (unless specified otherwise). The incubation was stopped by the addition of 1.0 ml of ice-cold CH2Cl2. Following the addition of sodium carbonate (approx. 20 mg), the culture tube was vortexed, centrifuged (2000×g, 10 min), and the organic layer was removed and transferred to a 1.5 ml microfuge tube. The organic solvent was evaporated under a stream of Ar(g) to dryness and the residue was taken up in MeOH (300 μl) for determination HPLC analysis.
Data was analyzed with a Hitachi D-2500 integrator.
MTS-oxygenation assays were carried out under the same buffer, temperature, time and volume conditions, as for the N-oxygenation assays. The reactions were initiated upon addition of 10 μl of a 5 mM solution of MTS. The reaction was quenched with the addition of 700 μl of 80% CH3CN:20% hexane then 20 mg NaCl(s) and vortexed vigorously for 10 sec. The quenched reactions were then centrifuged briefly to separate the phases. The organic layer, containing product and substrate, was removed and used directly for HPLC analysis.
All other instruments used were the same as above for the N-oxygenation reactions. Conditions for elution were 50% CH3CN/H2O (v:v) with a flow rate gradient as follows: 1.5 ml min^−1 from 0 to 4 min., 1.5-2.5 ml min^−1 from 4 to 5 min, 2.5 ml min^−1 from 5 to 15 min.
Trimethylamine is commonly ingested in foodstuffs or it is available in the diet of humans from choline and other sources. Trimethylamine (TMA) is exclusively eliminated in humans by metabolism to trimethylamine N-oxide (TMANO). […] Thus, urinary TMANO formation provides a simple, reliable and direct assay of FMO3 activity in adult humans. Analysis of TMA to TMANO ratios provides a direct means of phenotyping adult humans for FMO3 activity. Phenotyping FMO3 activity in humans would provide a simple means of evaluating the relationship between the presence of FMO3 and various disease conditions. […]

**Q.** CN(C)CCCCCN1c2ccccc2Sc2ccc(C(F)(F)F)cc21 [Compound 5] was tested. Which Km did it give?
**A.** 78 µM

**Q.** And the Vmax (Lineweaver-Burke analysis)?
**A.** 1.88 nmole/min/nmol of flavin
